In patent publication US12653799B2, “Compositions and methods for treating Alzheimer's disease” (ELEANORE BENNETT CHARITABLE TRUST #2, priority 2021, dated 2026):
Entries after “also recorded” stand apart in the source; their conditions may differ.

How the values were obtained:
[1] = biological target: T1, PDK-Akt activation sequence (recombinant PDK-1 and Akt-1) (Homo sapiens, UniProt O15530); test: In vitro drug screen of PS48-family compounds: PDK-1/Akt-1 activation sequence inhibited by Aβ42 ADDL oligomers (western readout); assay type: biochemical; details: for potency relative to PS48: based on Table 1 data; for GSK peptide and Akt T308 phosphorylations, Westerns of in vitro reaction mixture (FIG. 6A): compared to PS48; for fraction of control activity: compound 10 μM
T1 construct: purchased Amsbio
T1 sequence (O15530 1-556): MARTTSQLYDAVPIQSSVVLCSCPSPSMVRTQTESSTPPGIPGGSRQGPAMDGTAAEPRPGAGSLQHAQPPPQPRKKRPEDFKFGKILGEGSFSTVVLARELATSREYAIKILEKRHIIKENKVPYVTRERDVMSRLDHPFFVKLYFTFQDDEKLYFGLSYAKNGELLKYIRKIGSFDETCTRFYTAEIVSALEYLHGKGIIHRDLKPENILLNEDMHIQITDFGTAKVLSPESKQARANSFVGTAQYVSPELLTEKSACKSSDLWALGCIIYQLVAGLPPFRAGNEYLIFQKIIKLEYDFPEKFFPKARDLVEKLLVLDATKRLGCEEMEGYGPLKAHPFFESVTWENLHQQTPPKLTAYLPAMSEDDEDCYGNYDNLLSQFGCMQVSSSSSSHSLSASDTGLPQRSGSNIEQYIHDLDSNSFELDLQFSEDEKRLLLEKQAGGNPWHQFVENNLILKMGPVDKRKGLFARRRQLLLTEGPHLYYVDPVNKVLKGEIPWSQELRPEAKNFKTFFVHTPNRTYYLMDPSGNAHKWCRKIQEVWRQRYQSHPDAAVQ
Method: Incubation proceeded for 15 min. GSK-tide (Cell Signaling) was then added and the reaction allowed to continue for 20 min more before termination in sample buffer and fractionation on SDS gel. […] The in vitro results were validated using a cell culture-based assay, as above. […] Compound was added for 12 hrs. The cells were stimulated with insulin before harvest.
Where quantified, experiments were carried out in triplicate unless otherwise stated. Mean, standard errors and significance levels using Student's t-test were computed in Excel or Prism. […] Western signal intensities were all quantified by densitometry. […] Therefore, where both endpoints were evaluated, normalized values were both included in the quantification as indicated.
Drug screening experiments were performed using a focused library of novel compounds that were synthesized using PS48 as the starting scaffold. Two generations were created based on structure-activity relations (SAR) in an attempt to optimize performance.

[2] = test system: LTP in rat prefrontal cortical slices; test: Long term potentiation (LTP) in acute prefrontal cortical slices perfused with Aβ42 oligomers; assay type: cell-based; details: Aβ42 ADDLs 0.5 μM; PS48 10 μM, at the 1-hour mark after Aβ42 application
Method: FIG. 3A. […] LTP was measured as % baseline excitatory postsynaptic potential (EPSP) amplitudes. […] Washout restored LTP (4).
Minor modifications were made to previous published procedures (Marshall et al., 2017; Molina-Luna et al., 2009). Deeply anesthetized rats (pentobarbital, 50 mg/kg) were decapitated, their brains quickly removed and immersed in cold (5-7° C.), oxygenated (95% O2/5% CO2) artificial cerebrospinal fluid (ACSF) containing: 126 mM NaCl, 3 mM KCl, 1.25 mM NaH2PO4, 1 mM MgSO4, 2 mM CaCl2, 26 mM NaHCO3, 10 mM dextrose. […] Control treatment was DMSO in ACSF (artificial cerebrospinal fluid, 20 μM bicuculline). Extracellular postsynaptic field potentials were recorded using an AxoClamp2B amplifier (Axon instruments) and EX1 differential amplifier (Dagan), and digitized at 10 kHz. Data was acquired using Igor Pro (Wave Metrics) and Neuromatic (neuromatic.thinkrandom.com). The stimulus intensity eliciting 50% of the maximum amplitude (˜32 μA) was used for all measurements before and after LTP induction. Baseline amplitudes were recorded for 20-30 minutes using single field stimuli applied every 30 sec to layer IV-V using concentric bipolar electrodes. Following a stable baseline period, LTP was induced by two sets of high-frequency stimulation (HFS) at 100 Hz, 60 μA (twice stimulus intensity), for 1 sec, 20 sec apart. Extracellular postsynaptic field potentials were measured from layer II-III using glass micropipettes filled with 0.9% NaCl. The amplitude rather than the slope of evoked FPs was used as a measure of the population excitatory synaptic response because in the neocortex the initial slope was contaminated by antidromic stimulation. LTP values were expressed as percentage of mean baseline EPSP±SEM. Paired two-tailed t-tests were used for statistical analysis.
LTP was measured as % baseline excitatory postsynaptic potential (EPSP) amplitudes. […] Washout restored LTP.

N2a neural cultures = test: WST assay toxicity in N2a neural cultures; assay type: cell-based; details: result not shown
From the text: . […]. Examples of in vitro assay performance are shown in FIG. 6A and FIG. 6B for compound 508-1-25 (generation 1) and compound 508-1-68 (generation 2). […] The new “hit” compounds also had no direct or indirect effects on potential downstream off-targets such as mTOR (protein levels and phosphorylation status, results not shown). […]

[3] = test system: Akt phosphorylation in Aβ42-expressing SH-SY5Y cells; test: Akt activation in Aβ42-expressing cells (adenovirus/doxycycline, insulin-stimulated); assay type: cell-based; details: SH-SY5Y; for Phospho-Akt levels (T308 and S473 pooled) in cell-based model of Aβ toxicity, verification of analogs: compound 1 μM, insulin 40 nM last 20 minutes
Method: Adv TetOn and TRE-Aβ42 viruses were described previously (Magrane et al., 2005). […] Insulin (10 or 40 nM) was added in the last 20-30 min before harvest. […] Cell extracts were prepared in lysis buffer [20 mM Tris-HCl (pH 7.5), 150 mM NaCl, 1 mM EDTA, 1 mM Na3VO4, 1% NP-40, 10% Glycerol, 1 mM Na4P2O7, 1 μg/ml Leupeptin, 1 μg/ml Pepstatin A, 1 μg/ml Aprotinin, 0.1 mM phenylmethylsulfonyl fluoride, and protease inhibitor cocktail (Roche)] and were stored at −80° C. until use.
Whole-cell extracts were used directly for western blot analysis (20˜30 μg). Extracts from cultured cells prepared in lysis buffer, were diluted into Laemmli sample buffer, heated (95° C., 10 min), cleared by centrifugation, separated on SDS-PAGE and transferred to PVDF membrane (Immobilon-P; Millipore). Membranes were blocked in TBS containing 0.3% Tween-20 and 5% (wt/vol) non-fat dry milk. After incubation with primary antibodies (18 hr at 4° C. in buffer containing 5% bovine serum albumin (BSA) and 0.05% NaN3), blots were washed and incubated in horseradish peroxidase (HRP)-conjugated secondary antibodies (1:2000 dilution; Cell Signaling). Signals were detected using ECL reagents and quantified using a Kodak Image Station 4000R.
[…]. […] […]. […] […].

SH-SY5Y cells = test: Cell viability, MTT assay, Aβ42-expressing SH-SY5Y cells; details: pretreatment before doxycycline; PS48 10 μM or insulin 100 nM; harvested at 48 hrs
Method: FIG. 2A. Cell viability as measured by MTT assay.
SH-SY5Y cells were washed twice in warm Dulbecco's phosphate-buffered saline (DPBS) and incubated in 1 ml DMEM containing 0.5 mg (3-[4,5-dimethylthiazol-2-yl]-2,5-diphenyltetrazolium bromide) (MTT or WST; Molecular Probes, Eugene, OR) for 2-3 h at 37° C. and 5% CO2. The medium was aspirated and the cells were washed twice with pre-warmed DPBS. The formazan salts were dissolved in 1 ml pure ethanol before use. Cells were homogenized by repetitive pipetting and centrifuged for 5 min at 4500 rpm, and the supernatant collected. Absorbance was read against an ethanol blank at 590 nm.

[4] = first generation PS48 analogs, Aβ42 ADDL 10 μM, Aβ 42 alone = 0.62 (.16), control normalized to 1.00

| Compound | potency relative to PS48 [1] | GSK peptide and Akt T308 phosphorylations, Westerns of in vitro reaction mixture (FIG. 6A) [1] | fraction of control activity [1, 4] | Phospho-Akt levels (T308 and S473 pooled) in cell-based model of Aβ toxicity, verification of analogs [3] | other results |
| --- | --- | --- | --- | --- | --- |
| O=C(/C=C(/CCc1ccc(Cl)cc1)c1ccccc1)NCCO [508-1-7] | increase in potency over PS48 | restored activation as well as or better than PS48 | 0.97 (.10) | – | – |
| O=C(O)/C=C(\CCc1ccc(Cl)cc1)c1ccccc1 [PS47, (E)-5-(4-chlorophenyl)-3-phenylpent-2-enoic acid] | – | – | – | – | LTP (% baseline EPSP amplitude) inhibited by Aβ42 oligomers [2]: no effect |
| O=C(O)CNC(=O)/C=C(/CCc1ccc(Cl)cc1)c1ccccc1 [508-1-25] | increase in potency over PS48 | restored activation as well as or better than PS48 | 0.99 (.07) | correcting the inhibition of Akt phosphorylation | LD50 (N2a neural cultures): 350 µM; Phospho-Akt levels (T308 and S473 pooled) in cell-based model of Aβ toxicity, verification of analogs ([3]; listed as 501-1-25): active |
| insulin: Human insulin, recombinant | – | – | – | – | Akt activation (pT308) in β-amyloid-expressing cells ([3]; PS48 1 μM or insulin 100 nM added 2 hrs before doxycycline, insulin 40 nM 20 min prior to harvest): restored basal Akt activation levels; cell viability (MTT) of amyloid-bearing cells (SH-SY5Y cells): reverted cells to basal condition or better |
| O=C(O)c1cn(Cc2ccc(OC(F)(F)F)cc2)c2ccccc12 [508-1-31] | increase in potency over PS48 | – | 0.95 (.11) | – | – |
| COC(=O)CNC(=O)/C=C(\CCc1ccc(Cl)cc1)c1ccccc1 [508-1-68] | increase in potency over PS48 | restored activation as well as or better than PS48 | – | correcting the inhibition of Akt phosphorylation; also recorded: active | fraction of control activity ([1]; second generation PS48 analogs, Aβ 42 alone = 0.72 (.05)): 1.02 (.06) |
